Results from US20020119146A1, “TREATMENT OF DIABETES” (priority 1994, published 2002).
“Also recorded” adds a separate entry of the source.

Assays:
[1] = test system: subjects with remission phase Type I diabetes; experiment: Sustacal meal with lower-dose GLIP infusion (Example 3); type: in vivo, human; settings: infusion 0.75 pmol/kg/min for 120 minutes after Sustacal meal, versus saline infusion; FIG. 3
Method: Four subjects with remission phase Type I diabetes were studied during infusion with 0.75 pm/kg/min-GLIP for 120 minutes after a Sustacal meal.
The test was conducted as described in Example 1 and blood glucose and C-peptice levels were measured. On a further test day, the subjects were studied during saline infusion after a similar Slistacal meal.

Type I diabetic subjects = experiment: Sustacal meal preceded by subcutaneous GLIP in Type I diabetics (Example 5); type: in vivo, human; settings: 100 μg GLIP subcutaneously prior to Sustacal meal
Excerpt: Type I diabetic subjects were studied.
The results are shown in FIG. 5. indicates statistically significant differences between treatments (p<0.05).

normal volunteers = experiment: Sustacal meal preceded by subcutaneous GLIP in normal volunteers (Example 4); type: in vivo, human
Excerpt: Results are shown in FIG. 4. *indicates statistically significant differences between treatments (p<0.05).

humans and other mammals = settings: cited from earlier work
Type II diabetics = settings: cited from earlier work
[2] = test system: subjects with remission phase Type I diabetes; experiment: Sustacal meal with intravenous GLIP infusion (Example 1); type: in vivo, human
Method: 7 subjects with remission phase Type I diabetes were studied after ingestion of a standardised meal of Sustacal (Upjohn) (delivering […]). Subjects continued their normal insulin treatment programme on the day prior to the test and, on the day of the test, omitted their morning insulin injection and arrived fasting at 8:00 am. […] Infusion was continued for 120 minutes. Blood levels of glucose, C-peptide, gastrin, glucagon and HPP were monitored by standard radioimmunoassay methods in samples taken before and at intervals during the study, up to 180 minutes. On another test day, subjects were given the Sustacal meal alone and the same analytes were similarly monitored.

Type 1 diabetic subject = experiment: Subcutaneous GLIP along with insulin before Sustacal meal (Example 6)
Method: One Type 1 diabetic subject was given GLIP along with insulin and the effects on post-prandial glycaemia observed. The subject received 5 units of insulin and 50 μg GLIP as subcutaneous injections immediately prior to ingestion of a Sustacal meal as described in Example 1. Blood levels of GLIP were monitored by a standard radioimmunoassay method.

[3] = subcutaneous injection of 00 gg GLIP immediately before Sustacal meal

In the case of “Glucagon-like peptide 1(7-36)amide [GLIP]”, the “increase in blood glucose” value [1] is reported as “increase in glucose was less than in the control experiment”, the “rise in C-peptide” value [1] is reported as “rise in C-peptide was similar to the control experiment” and the “blood glucose levels compared to control (no GLIP)” value (Type I diabetic subjects; morning insulin omitted, FIG. 5 Panel A) is reported as “lowering of blood glucose levels”. The “pancreatic polypeptide (HPP) levels” value (Type I diabetic subjects; FIG. 5 Panel D) was “delayed rise in pancreatic polypeptide (HPP) levels”, the “insulin secretion over control levels” value (Type I diabetic subjects; FIG. 5 Panels B and C) was “no enhancement of insulin secretion over control levels” and the “delays in increase in blood levels of glucose, HPP, C-peptide and insulin” value (normal volunteers; experiment repeated with 50 Ag dose of GLIP) was “proportionally shorter”. For the same substance, the “delays in increase in blood levels of glucose, HPP, C-peptide and insulin” value (normal volunteers; experiment repeated with 200 Ag dose of GLIP) was “longer”, the “increase in blood levels of C-peptide” value (normal volunteers; [3]) was “delay in increase” and the “increase in blood levels of HPP” value (normal volunteers; [3]) was “delay in increase”. The “increase in blood levels of glucose” value (normal volunteers; [3]) was “delay in increase”, the “increase in blood levels of insulin” value (normal volunteers; [3]) was “delay in increase” and the gastric emptying (humans and other mammals) was “delay of gastric emptying”. For the same substance, the “effect between the peptide and oral hypoglycaemic agents” value (Type II diabetics) was “synergistic effect”, the “gastrin response / gastrin levels” value ([2]; IV infusion 1.2 pm/kg/min after Sustacal meal, FIG. 1 Panel E) was “normal ga.trin response; also recorded: not significantly affected” and the “blood glucose level after a meal” value ([2]; IV infusion 1.2 pm/kg/min for 120 minutes after Sustacal meal, FIG. 1 Panel A) was “excellent control of blood glucose level”. For the same substance, the “secretion of pancreatic polypeptide (PP) after Sustacal meal” value ([2]; IV infusion 1.2 pm/kg/min, FIG. 1 Panel C) was “this response was absent during GLIP infusion”, the “clearance of GLIP from the blood” value (Type 1 diabetic subject; 50 μg GLIP subcutaneously with 5 units insulin, radioimmunoassay, FIG. 6 Panel E) was “cleared from the blood in about two hours” and the “blood glucose after standard meal” value (Type 1 diabetic subject; 50 gg GLIP with 5 units insulin (half the usual dose) subcutaneously before Sustacal meal, one subject, FIG. 6 Panel A) was at most 8 mM.
